Assay results from the NIST ThermoML archive (doi:10.1016/j.fluid.2012.08.030).

Experiments:
[1] = xn = mol fraction of the nth substance listed; conditions: 101 kPa, Liquid, Vibrating tube method
[2] = Liquid; for mass density: 101 kPa, Vibrating tube method; for vapor or sublimation pressure: Ebulliometric method (Recirculating still)

CN1CCCC1=O [N-methylpyrrolidone] + CCCCOCCO
[1], x1 = 1
Conditions | mass density [kg/m3]
303.15 K | 1023.45
308.15 K | 1019.34
313.15 K | 1014.82
318.15 K | 1010.06

CCOCCO [2-ethoxyethan-1-ol] + CN1CCCC1=O
mass density [kg/m3], [1]
Conditions | 303.15 K | 308.15 K | 313.15 K | 318.15 K
x2 = 0 | 921.21 | 916.48 | 911.88 | 907.79
x2 = 0.101 | 936.06 | 931.85 | 927.8 | 924.28
x2 = 0.202 | 949.87 | 946.07 | 942.45 | 939.35
x2 = 0.302 | 962.64 | 959.15 | 955.84 | 953.02
x2 = 0.402 | 974.38 | 971.1 | 967.97 | 965.3
x2 = 0.503 | 985.1 | 981.93 | 978.86 | 976.19
x2 = 0.602 | 994.78 | 991.62 | 988.5 | 985.68
x2 = 0.702 | 1003.45 | 1000.2 | 996.91 | 993.82
x2 = 0.802 | 1011.12 | 1007.68 | 1004.1 | 1000.58
x2 = 0.851 | 1014.58 | 1011.01 | 1007.23 | 1003.46
x2 = 0.901 | 1017.78 | 1014.06 | 1010.06 | 1006
x2 = 0.926 | 1019.29 | 1015.48 | 1011.37 | 1007.14
x2 = 0.951 | 1020.74 | 1016.84 | 1012.59 | 1008.2
x2 = 0.982 | 1022.5 | 1018.47 | 1014.05 | 1009.43

COCCO [2-methoxyethan-1-ol] + CN1CCCC1=O
mass density [kg/m3], [1]
Conditions | 303.15 K | 308.15 K | 313.15 K | 318.15 K
x2 = 0 | 955.74 | 951.14 | 946.25 | 941.59
x2 = 0.084 | 965.64 | 961.46 | 957.05 | 952.92
x2 = 0.171 | 975.06 | 971.25 | 967.28 | 963.59
x2 = 0.261 | 983.98 | 980.47 | 976.83 | 973.49
x2 = 0.354 | 992.29 | 989 | 985.62 | 982.52
x2 = 0.451 | 999.91 | 996.77 | 993.52 | 990.55
x2 = 0.552 | 1006.73 | 1003.64 | 1000.44 | 997.46
x2 = 0.657 | 1012.64 | 1009.49 | 1006.19 | 1003.04
x2 = 0.767 | 1017.5 | 1014.17 | 1010.64 | 1007.15
x2 = 0.881 | 1021.17 | 1017.52 | 1013.58 | 1009.56
x2 = 0.916 | 1022 | 1018.23 | 1014.14 | 1009.93
x2 = 0.94 | 1022.5 | 1018.64 | 1014.43 | 1010.07
x2 = 0.97 | 1023.01 | 1019.04 | 1014.68 | 1010.13
x2 = 0.988 | 1023.3 | 1019.24 | 1014.78 | 1010.1

CN1CCCC1=O [N-methylpyrrolidone] + COCCO
[1], x1 = 1
Conditions | mass density [kg/m3]
303.15 K | 1023.45
308.15 K | 1019.34
313.15 K | 1014.82
318.15 K | 1010.06

CN1CCCC1=O [N-methylpyrrolidone] + CCOCCO
[1], x1 = 1
Conditions | mass density [kg/m3]
303.15 K | 1023.45
308.15 K | 1019.34
313.15 K | 1014.82
318.15 K | 1010.06

CCCCOCCO [2-butoxyethan-1-ol]
[2]
Conditions | mass density [kg/m3] | vapor or sublimation pressure [kPa]
303.15 K | 892.28 | –
308.15 K | 888.19 | –
313.15 K | 884.17 | –
318.15 K | 880.02 | –
406.8 K | – | 28.1
412.1 K | – | 34.2
417.35 K | – | 41.3
421.57 K | – | 47.9
424.9 K | – | 53.7
428.43 K | – | 60.5
432.22 K | – | 68.6
435.52 K | – | 76.4
437.42 K | – | 81.2
440.2 K | – | 88.7
442.49 K | – | 95.3

COCCO [2-methoxyethan-1-ol]
[2]
Conditions | mass density [kg/m3] | vapor or sublimation pressure [kPa]
303.15 K | 955.74 | –
308.15 K | 951.14 | –
313.15 K | 946.25 | –
318.15 K | 941.59 | –
364.15 K | – | 28.1
368.84 K | – | 34.2
373.48 K | – | 41.3
377.22 K | – | 47.9
380.17 K | – | 53.7
383.3 K | – | 60.5
386.66 K | – | 68.6
389.59 K | – | 76.4
391.28 K | – | 81.2
393.75 K | – | 88.7
395.78 K | – | 95.3

CCCCOCCO [2-butoxyethan-1-ol] + CN1CCCC1=O
mass density [kg/m3], [1]
Conditions | 303.15 K | 308.15 K | 313.15 K | 318.15 K
x2 = 0 | 892.28 | 888.19 | 884.17 | 880.02
x2 = 0.132 | 914.72 | 911.2 | 907.8 | 904.37
x2 = 0.255 | 934.22 | 931.07 | 928.06 | 925.08
x2 = 0.369 | 951.2 | 948.27 | 945.46 | 942.72
x2 = 0.477 | 966.04 | 963.19 | 960.43 | 957.74
x2 = 0.577 | 979 | 976.12 | 973.27 | 970.48
x2 = 0.672 | 990.36 | 987.35 | 984.32 | 981.3
x2 = 0.761 | 1000.3 | 997.1 | 993.8 | 990.46
x2 = 0.845 | 1009.04 | 1005.59 | 1001.93 | 998.18
x2 = 0.925 | 1016.72 | 1012.95 | 1008.89 | 1004.66
x2 = 0.948 | 1018.83 | 1014.97 | 1010.77 | 1006.39
x2 = 0.963 | 1020.19 | 1016.26 | 1011.97 | 1007.49
x2 = 0.978 | 1021.52 | 1017.52 | 1013.14 | 1008.55
x2 = 0.993 | 1022.82 | 1018.74 | 1014.27 | 1009.57

CCOCCO [2-ethoxyethan-1-ol]
[2]
Conditions | mass density [kg/m3] | vapor or sublimation pressure [kPa]
303.15 K | 921.21 | –
308.15 K | 916.48 | –
313.15 K | 911.88 | –
318.15 K | 907.79 | –
373.48 K | – | 28.1
378.36 K | – | 34.2
383.18 K | – | 41.3
387.06 K | – | 47.9
390.12 K | – | 53.7
393.37 K | – | 60.5
396.86 K | – | 68.6
399.9 K | – | 76.4
401.65 K | – | 81.2
404.22 K | – | 88.7
406.33 K | – | 95.3

CN1CCCC1=O [N-methylpyrrolidone]
[2]
Conditions | mass density [kg/m3] | vapor or sublimation pressure [kPa]
303.15 K | 1023.45 | –
308.15 K | 1019.34 | –
313.15 K | 1014.82 | –
318.15 K | 1010.06 | –
430.09 K | – | 28.1
436.5 K | – | 34.2
442.88 K | – | 41.3
448.05 K | – | 47.9
452.13 K | – | 53.7
456.48 K | – | 60.5
461.17 K | – | 68.6
465.29 K | – | 76.4
467.66 K | – | 81.2
471.15 K | – | 88.7
474.01 K | – | 95.3
